Laboratory results published in US20200270232A1, “INHIBITORS OF INTEGRATED STRESS RESPONSE PATHWAY” (Praxis Biotech LLC, priority 2019, published 2020).

Assays:
[1] = test system: Chinese hamster ovary (CHO) cells; assay: Protein translation assay (puromycin labelling, western blot); type: cell-based; details: 2 hours, media alone = 100%; for activity at 1 µM: Cricetulus griseus, unstressed CHO cells (without Tg), 1 μM test compound, read-out: % Protein synthesis relative to untreated (1 μM test compound); for % Recovery of protein synthesis (1 μM test compound): stressed CHO cells, 300 nM Tg, Tg alone = 0%
Experimental: Chinese hamster ovary (CHO) cells were maintained at 37° C. and 5% C02 in Dulbecco's Modified Eagle's Media (DMEM) supplemented with 10% fetal bovine serum, 2 mM L-glutamine, 100 U/ml penicillin, and 100 μg/ml streptomycin. After reaching 80% of confluence, cells were detached and seeded on 6 well plates in complete media, allowed to recover overnight and treated for 2 hours with 1 μM of the test compound (to assess protein synthesis levels in unstressed condition), or for 2 hours with 300 nM Tg in the presence of 1 μM of the test compound (to assess the recovery of protein synthesis in a stressed condition). Cells with Tg alone were used as controls.
After the 2 hours treatments, media were replaced by adding 10 μg/ml puromycin (Sigma Aldrich # P8833) in complete media for 30 min. Media were removed and cells were lysed with SDS-PAGE lysis buffer. Lysates were transferred to 1.5 ml tubes and sonicated for 3 min and total protein amount were quantified using BCA Protein Assay Kit (Pierce). Equal amount of protein (30 μg) was loaded on SDS-PAGE gels. Proteins were transferred onto 0.2 μm PVDF membranes (BioRad) and probed with primary antibodies diluted in Tris-buffered saline supplemented with 0.1% Tween 20 (Merck # S6996184 505) and 3% bovine serum albumin (Rockland # BSA-50).
Puromycin (12D10) (Merck # MABE343) and β-actin (Sigma Aldrich # A5441) antibodies were used as primary antibody. A HRP-conjugated secondary antibody (Rockland) was employed to detect immune-reactive bands using enhanced chemiluminescence (ECL Western Blotting Substrate, Pierce). Quantification of protein bands was done by densitometry using ImageJ software.
Percent increase of protein synthesis in unstressed cells (without Tg treatment) in the presence of media alone or certain test compounds is shown in Table 3. The percentage levels were normalized to the media alone condition, which correspond to 100% protein synthesis.
Percent recovery of protein synthesis in stressed cells (with Tg treatment) due to the test compounds at 1 μM is also shown in Table 3. The levels were normalized to the media alone and Tg alone conditions, which correspond to 100% and 0% respectively.

ATF4 = ATF4 expression inhibition assay (ATF4 luciferase reporter); type: cell-based; details: Homo sapiens, HEK-293T; HEK293T cells carrying the ATF4 luciferase reporter, 100 nM thapsigargin (Tg), 3 hours; read-out: ATF4 inhbition IC50
Experimental: The ATF4 reporter was prepared by fusing the human full length 5′UTR of ATF4 (NCBI Accession No. BC022088.2) upstream of the firefly luciferase coding sequence lacking the initiator methionine. The fused sequence was cloned into pLenti-EF1a-C-Myc-DDK-IRES-Puro cloning vector (Origen # PS 100085) using standard methods. Virus production was carried out by using Lenti-X™ Packaging Single Shots Protocol (Clonetech #631276). Viral particles were used to transduce HEK293T cells (ATCC # CRL-3216, ATCC Manassas, Va.), which were subsequently selected with puromycin to generate stable cell line. Cells were maintained at 37° C. and 5% CO2 in DMEM-F12 (Hyclone # SH30023.02) supplemented with 10% heat-inactivated fetal bovine serum (Gibco #16000-044), 2 mM L-glutamine (Gibco #25030-081), 100 U/ml penicillin, and 100 μg/ml streptomycin (Gibco #15140-122).
HEK293T cells carrying the ATF4 luciferase reporter were plated on 96-well plates (Nunc) at 10,000 cells per well. Cells were treated two days after seeding with 100 nM thapsigargin (Tg) (Sigma-Aldrich # T9033) in the presence of different concentrations of selected compounds ranging from 1 nM to 10 μM. Cells without treatment or cells treated with Tg alone were used as controls. Assay plates containing cells were incubated for 3 hours at 37° C.
Luciferase reactions were performed using Luciferase Assay System (Promega # E1501) as specified by the manufacturer. Luminescence was read with an integration time of 1 s and a gain of 110 using a Cytation-5 multi-mode microplate reader (BioTek). Relative luminescence units were normalized to Tg treatment (0% inhibition) and untreated cells (100% inhibition) and the percentage of ATF4 inhibition was calculated.
Accordingly, inhibition of ATF4 expression as a result of the test compound indicates suppression of the ISR pathway.

Compound | activity at 1 µM [1] | % Recovery of protein synthesis (1 μM test compound) [1] | IC50 (ATF4)
O=C(N[C@H]1CC[C@H](NC[C@@H](O)COc2ccc(Cl)c(F)c2)C1)c1cc2cc(Cl)ccc2o1 [Compound 94, 5-chloro-N-((1S,3S)-3-(((R)-3-(4-chloro-3-fluorophenoxy)-2-hydroxypropyl)amino)cyclopentyl)benzofuran-2-carboxamide] | 169% | 298.3% | 24.3 nM
O=C(NC1CCN(CCCOc2ccc(Cl)c(F)c2)C1)c1ccc2cc(Cl)ccc2n1 (stereo not shown) [Compound 56, 6-chloro-N-(1-(3-(4-chloro-3-fluorophenoxy)propyl)pyrrolidin-3-yl)quinoline-2-carboxamide] | 100% | 32.73% | > 1000 nM
O=C(COc1ccc(Cl)c(F)c1)NC[C@@H]1CCN(NC(=O)c2cc3cc(Cl)ccc3o2)C1 [Compound 96, (S)-5-chloro-N-(3-((2-(4-chloro-3-fluorophenoxy)acetamido)methyl)pyrrolidin-1-yl)benzofuran-2-carboxamide] | 110% | 24.5% | 4.97 nM
O=C(COc1ccc(Cl)c(F)c1)NCC1CCC(NCC(O)COc2ccc(Cl)c(F)c2)C1 (stereo not shown) [Compound 89, 2-(4-chloro-3-fluorophenoxy)-N-((3-((3-(4-chloro-3-fluorophenoxy)-2-hydroxypropyl)amino)cyclopentyl)methyl)acetamide] | 119% | 42.5% | > 1000 nM
O=C(NC1CC[C@H](NC[C@@H](O)COc2ccc(Cl)c(F)c2)C1)c1cc2cc(Cl)ccc2o1 (stereo partly drawn) [Compound 90, 5-chloro-N-((3S)-3-(((R)-3-(4-chloro-3-fluorophenoxy)-2-hydroxypropyl)amino)cyclopentyl)benzofuran-2-carboxamide] | 210% | 269.7% | 57.8 nM
O=C(COc1ccc(Cl)c(F)c1)NC[C@H]1CCN(NC(=O)c2cc3cc(Cl)ccc3o2)C1 [Compound 97, (R)-5-chloro-N-(3-((2-(4-chloro-3-fluorophenoxy)acetamido)methyl)pyrrolidin-1-yl)benzofuran-2-carboxamide] | 109% | – | 25 nM
O=C(COc1ccc(Cl)c(F)c1)NCC1CCN(NC(=O)COc2ccc(Cl)c(F)c2)C1 (stereo not shown) [Compound 92, 2-(4-chloro-3-fluorophenoxy)-N-(3-((2-(4-chloro-3-fluorophenoxy)acetamido)methyl)pyrrolidin-1-yl)acetamide] | 93.6% | 45.8% | 14.1 nM
O=C(COc1ccc(Cl)c(F)c1)NCC1CCC(NC(=O)c2cc3cc(Cl)ccc3o2)C1 (stereo not shown) [Compound 86, 5-chloro-N-(3-((2-(4-chloro-3-fluorophenoxy)acetamido)methyl)cyclopentyl)benzofuran-2-carboxamide] | 94.2% | – | < 100 nM
O=C(COc1ccc(Cl)c(F)c1)N[C@H]1CC[C@H](NC(=O)COc2ccc(Cl)c(F)c2)C1 [Compound 1, N,N′-((1S,3S)-cyclopentane-1,3-diyl)bis(2-(4-chloro-3-fluorophenoxy)acetamide)] | 46.9% | – | 856 nM
O=C(N[C@H]1CC[C@H](NCC(O)COc2ccc(Cl)c(F)c2)C1)c1ccc2cc(Cl)ccc2n1 (stereo partly drawn) [Compound 13, 6-chloro-N-((1S,3S)-3-((3-(4-chloro-3-fluorophenoxy)-2-hydroxypropyl)amino)cyclopentyl)quinoline-2-carboxamide] | 288% | 161.6% | > 100 nM
O=C(NCC1CCC(NCC(O)COc2ccc(Cl)c(F)c2)C1)c1ccc2cc(Cl)ccc2n1 (stereo not shown) [Compound 34, 6-chloro-N-((3-((3-(4-chloro-3-fluorophenoxy)-2-hydroxypropyl)amino)cyclopentyl)methyl)quinoline-2-carboxamide] | 166% | 122.6% | > 1000 nM
O=C(COc1ccc(Cl)c(F)c1)NCC1CCN(C(=O)c2ccc3cc(Cl)ccc3n2)C1 (stereo not shown) [Compound 5, 2-(4-chloro-3-fluorophenoxy)-N-((1-(6-chloroquinoline-2-carbonyl)pyrrolidin-3-yl)methyl)acetamide] | 94.2% | 0.00% | > 100 nM
O=C(COc1ccc(Cl)c(F)c1)N[C@H]1CC[C@H](NC(=O)c2ccc3cc(Cl)ccc3n2)C1 [Compound 16, 6-chloro-N-((1S,3S)-3-(2-(4-chloro-3-fluorophenoxy)acetamido)cyclopentyl)quinoline-2-carboxamide] | 95.4% | – | 134 nM
O=C(N[C@H]1CC[C@@H](NCC(O)COc2ccc(Cl)c(F)c2)C1)c1cc2cc(Cl)ccc2o1 (stereo partly drawn) [Compound 21, 5-chloro-N-((1S,3R)-3-((3-(4-chloro-3-fluorophenoxy)-2-hydroxypropyl)amino)cyclopentyl)benzofuran-2-carboxamide] | 141% | 54.6% | > 1000 nM
O=C(COc1ccc(Cl)c(F)c1)NC1CCC(CNC(=O)c2cc3cc(Cl)ccc3o2)C1 (stereo not shown) [Compound 88, 5-chloro-N-((3-(2-(4-chloro-3-fluorophenoxy)acetamido)cyclopentyl)methyl)benzofuran-2-carboxamide] | 76.4% | – | < 1000 nM
O=C(NC1CCN(CCCOc2ccc(Cl)c(F)c2)C1)c1cc2cc(Cl)ccc2o1 (stereo not shown) [Compound 101, 5-chloro-N-(1-(3-(4-chloro-3-fluorophenoxy)propyl)pyrrolidin-3-yl)benzofuran-2-carboxamide] | 93.2% | 86.10% | > 100 nM
O=C(NCC1CCN(CC(O)COc2ccc(Cl)c(F)c2)C1)c1cc2cc(Cl)ccc2o1 (stereo not shown) [Compound 8, 5-chloro-N-((1-(3-(4-chloro-3-fluorophenoxy)-2-hydroxypropyl)pyrrolidin-3-yl)methyl)benzofuran-2-carboxamide] | 107% | 31.57% | > 1000 nM
O=C(COc1ccc(Cl)c(F)c1)N[C@@H]1CC[C@H](NC(=O)c2cc3cc(Cl)ccc3o2)C1 [Compound 17, 5-chloro-N-((1S,3R)-3-(2-(4-chloro-3-fluorophenoxy)acetamido)cyclopentyl)benzofuran-2-carboxamide] | 78.4% | 22% | 102 nM
O=C(COc1ccc(Cl)c(F)c1)NCC1CCN(NC(=O)c2ccc3cc(Cl)ccc3n2)C1 (stereo not shown) [Compound 93, 6-chloro-N-(3-((2-(4-chloro-3-fluorophenoxy)acetamido)methyl)pyrrolidin-1-yl)quinoline-2-carboxamide] | 102% | 51.4% | 2.8 nM
O=C(NC1CC[C@H](NC[C@H](O)COc2ccc(Cl)c(F)c2)C1)c1cc2cc(Cl)ccc2o1 (stereo partly drawn) [Compound 91, 5-chloro-N-((3S)-3-(((S)-3-(4-chloro-3-fluorophenoxy)-2-hydroxypropyl)amino)cyclopentyl)benzofuran-2-carboxamide] | 190% | 209.4% | 1240 nM
